# Legend:
# Assay in all cases: biochemical
# Set-up in all cases: DiscoverX KINOMEscan scanMAX competition binding panel, single concentration, percent of control; remaining binding: dose or concentration left out as unconfirmed
# Settings in all cases: KINOMEscan binding, percent of control; read-out: Table S4_SCANMAX REPORT - related to Fig. 1 / Percent Control
# EGFR(E746-A750del) = EGFR(E746-A750del) (Homo sapiens, UniProt P00533, DEL746-750)
# p38-alpha = target: T1, p38-alpha (Homo sapiens, UniProt Q16539)
# T1 construct: gene MAPK14
# DAPK2 = DAPK2 (Homo sapiens, UniProt Q9UIK4)
# ABL2 = ABL2 (Homo sapiens, UniProt P42684)
# ALK(C1156Y) = ALK(C1156Y) (Homo sapiens, UniProt Q9UM73, C1156Y)
# HCK = HCK (Homo sapiens, UniProt P08631)
# FLT3(ITD,F691L) = FLT3(ITD,F691L) (Homo sapiens, UniProt P36888, F691L/ITD)
# BMPR1B = BMPR1B (Homo sapiens, UniProt O00238)
# GRK2 = GRK2 (Homo sapiens, UniProt P25098)
# CSF1R-autoinhibited = CSF1R-autoinhibited (Homo sapiens, UniProt P07333)
# MLK3 = target: T2, MLK3 (Homo sapiens, UniProt Q16584)
# T2 construct: gene MAP3K11
# PFCDPK1(P.falciparum) = target: T3, PFCDPK1(P.falciparum) (Plasmodium falciparum, UniProt P62344)
# T3 construct: gene CDPK1
# PRKCH = PRKCH (Homo sapiens, UniProt P24723)
# [1] = target: T4, JAK3(JH1domain-catalytic) (Homo sapiens, UniProt P52333)
# T4 construct: JH1domain-catalytic
# ERK3 = target: T5, ERK3 (Homo sapiens, UniProt Q16659)
# T5 construct: gene MAPK6
# EPHA5 = EPHA5 (Homo sapiens, UniProt P54756)
# CAMKK1 = CAMKK1 (Homo sapiens, UniProt Q8N5S9)
# DRAK1 = target: T6, DRAK1 (Homo sapiens, UniProt Q9UEE5)
# T6 construct: gene STK17A
# T6 sequence (Q9UEE5 whole entry): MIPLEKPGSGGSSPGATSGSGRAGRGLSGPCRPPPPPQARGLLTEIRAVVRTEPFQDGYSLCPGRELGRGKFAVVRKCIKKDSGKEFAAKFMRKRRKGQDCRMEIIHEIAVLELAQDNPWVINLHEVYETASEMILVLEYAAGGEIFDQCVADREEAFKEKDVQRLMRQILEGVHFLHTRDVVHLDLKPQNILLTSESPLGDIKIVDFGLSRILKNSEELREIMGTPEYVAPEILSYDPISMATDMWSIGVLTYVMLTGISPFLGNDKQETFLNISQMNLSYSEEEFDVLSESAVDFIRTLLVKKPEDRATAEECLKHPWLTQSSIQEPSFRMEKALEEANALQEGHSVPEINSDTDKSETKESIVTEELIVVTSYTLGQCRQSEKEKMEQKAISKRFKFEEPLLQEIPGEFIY
# FLT3(ITD,F691L), sequence (P36888 564-993 F691L): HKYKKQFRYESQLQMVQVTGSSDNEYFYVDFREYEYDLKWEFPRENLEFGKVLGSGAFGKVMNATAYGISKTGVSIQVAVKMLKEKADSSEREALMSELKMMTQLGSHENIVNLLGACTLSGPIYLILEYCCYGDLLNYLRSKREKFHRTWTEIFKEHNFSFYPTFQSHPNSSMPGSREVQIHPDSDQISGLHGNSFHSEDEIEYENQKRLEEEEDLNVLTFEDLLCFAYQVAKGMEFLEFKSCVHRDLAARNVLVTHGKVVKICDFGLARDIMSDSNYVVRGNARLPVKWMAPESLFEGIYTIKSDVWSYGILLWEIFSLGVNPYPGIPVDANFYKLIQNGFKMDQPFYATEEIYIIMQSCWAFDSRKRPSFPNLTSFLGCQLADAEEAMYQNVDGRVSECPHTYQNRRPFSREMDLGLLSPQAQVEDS
# T2 sequence (Q16584 whole entry): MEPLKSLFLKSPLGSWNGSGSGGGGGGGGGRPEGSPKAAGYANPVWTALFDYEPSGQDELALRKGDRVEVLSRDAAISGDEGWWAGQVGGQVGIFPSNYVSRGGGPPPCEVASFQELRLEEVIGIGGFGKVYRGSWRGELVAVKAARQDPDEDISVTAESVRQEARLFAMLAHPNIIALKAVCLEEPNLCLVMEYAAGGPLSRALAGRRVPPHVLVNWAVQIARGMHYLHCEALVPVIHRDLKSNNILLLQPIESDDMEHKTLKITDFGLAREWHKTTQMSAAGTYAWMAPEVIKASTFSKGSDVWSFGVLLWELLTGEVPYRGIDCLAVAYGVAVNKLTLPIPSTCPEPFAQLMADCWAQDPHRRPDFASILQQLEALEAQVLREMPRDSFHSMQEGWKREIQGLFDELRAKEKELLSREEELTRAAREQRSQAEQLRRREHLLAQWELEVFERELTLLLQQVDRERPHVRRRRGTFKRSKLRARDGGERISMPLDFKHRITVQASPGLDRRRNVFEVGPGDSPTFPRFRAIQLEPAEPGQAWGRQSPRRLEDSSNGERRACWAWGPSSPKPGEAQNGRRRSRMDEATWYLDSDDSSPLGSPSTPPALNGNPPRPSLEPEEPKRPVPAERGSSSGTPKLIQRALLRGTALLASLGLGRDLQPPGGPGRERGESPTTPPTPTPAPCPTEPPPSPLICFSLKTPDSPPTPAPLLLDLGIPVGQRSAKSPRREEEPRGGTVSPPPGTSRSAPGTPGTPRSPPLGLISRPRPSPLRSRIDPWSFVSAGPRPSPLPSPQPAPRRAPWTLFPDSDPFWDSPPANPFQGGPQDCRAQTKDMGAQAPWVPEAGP
# EGFR(E746-A750del), sequence (P00533 with tags, fused parts or gaps DEL746-750): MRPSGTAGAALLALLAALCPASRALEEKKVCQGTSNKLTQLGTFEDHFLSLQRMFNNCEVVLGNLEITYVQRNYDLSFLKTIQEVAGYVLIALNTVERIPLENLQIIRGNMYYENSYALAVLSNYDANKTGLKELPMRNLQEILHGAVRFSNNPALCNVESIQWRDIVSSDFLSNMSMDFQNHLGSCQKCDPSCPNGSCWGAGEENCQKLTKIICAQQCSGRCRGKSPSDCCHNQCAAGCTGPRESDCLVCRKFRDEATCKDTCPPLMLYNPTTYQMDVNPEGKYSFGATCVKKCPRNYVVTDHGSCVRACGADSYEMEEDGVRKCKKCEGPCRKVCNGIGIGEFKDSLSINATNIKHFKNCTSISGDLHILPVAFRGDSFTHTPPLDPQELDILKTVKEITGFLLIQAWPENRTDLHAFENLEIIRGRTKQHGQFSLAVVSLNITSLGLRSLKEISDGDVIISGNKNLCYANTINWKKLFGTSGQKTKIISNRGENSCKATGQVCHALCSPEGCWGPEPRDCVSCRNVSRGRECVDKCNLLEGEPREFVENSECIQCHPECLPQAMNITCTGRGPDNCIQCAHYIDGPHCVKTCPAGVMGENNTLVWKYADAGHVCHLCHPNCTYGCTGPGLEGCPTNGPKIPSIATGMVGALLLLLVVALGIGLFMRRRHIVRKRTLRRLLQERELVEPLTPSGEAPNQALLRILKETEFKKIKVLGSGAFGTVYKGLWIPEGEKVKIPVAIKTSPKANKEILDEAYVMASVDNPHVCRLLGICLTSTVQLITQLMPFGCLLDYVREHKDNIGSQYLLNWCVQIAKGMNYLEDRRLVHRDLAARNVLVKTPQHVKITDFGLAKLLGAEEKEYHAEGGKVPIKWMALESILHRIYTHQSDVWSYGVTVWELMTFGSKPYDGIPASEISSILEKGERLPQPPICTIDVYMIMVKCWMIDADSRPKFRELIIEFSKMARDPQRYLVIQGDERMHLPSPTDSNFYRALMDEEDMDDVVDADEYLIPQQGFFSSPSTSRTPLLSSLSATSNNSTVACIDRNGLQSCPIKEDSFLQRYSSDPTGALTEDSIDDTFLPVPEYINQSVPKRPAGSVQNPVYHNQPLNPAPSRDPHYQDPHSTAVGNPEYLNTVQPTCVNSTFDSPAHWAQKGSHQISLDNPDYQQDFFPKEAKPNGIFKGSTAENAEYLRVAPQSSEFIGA
# EPHA5, sequence (P54756 whole entry): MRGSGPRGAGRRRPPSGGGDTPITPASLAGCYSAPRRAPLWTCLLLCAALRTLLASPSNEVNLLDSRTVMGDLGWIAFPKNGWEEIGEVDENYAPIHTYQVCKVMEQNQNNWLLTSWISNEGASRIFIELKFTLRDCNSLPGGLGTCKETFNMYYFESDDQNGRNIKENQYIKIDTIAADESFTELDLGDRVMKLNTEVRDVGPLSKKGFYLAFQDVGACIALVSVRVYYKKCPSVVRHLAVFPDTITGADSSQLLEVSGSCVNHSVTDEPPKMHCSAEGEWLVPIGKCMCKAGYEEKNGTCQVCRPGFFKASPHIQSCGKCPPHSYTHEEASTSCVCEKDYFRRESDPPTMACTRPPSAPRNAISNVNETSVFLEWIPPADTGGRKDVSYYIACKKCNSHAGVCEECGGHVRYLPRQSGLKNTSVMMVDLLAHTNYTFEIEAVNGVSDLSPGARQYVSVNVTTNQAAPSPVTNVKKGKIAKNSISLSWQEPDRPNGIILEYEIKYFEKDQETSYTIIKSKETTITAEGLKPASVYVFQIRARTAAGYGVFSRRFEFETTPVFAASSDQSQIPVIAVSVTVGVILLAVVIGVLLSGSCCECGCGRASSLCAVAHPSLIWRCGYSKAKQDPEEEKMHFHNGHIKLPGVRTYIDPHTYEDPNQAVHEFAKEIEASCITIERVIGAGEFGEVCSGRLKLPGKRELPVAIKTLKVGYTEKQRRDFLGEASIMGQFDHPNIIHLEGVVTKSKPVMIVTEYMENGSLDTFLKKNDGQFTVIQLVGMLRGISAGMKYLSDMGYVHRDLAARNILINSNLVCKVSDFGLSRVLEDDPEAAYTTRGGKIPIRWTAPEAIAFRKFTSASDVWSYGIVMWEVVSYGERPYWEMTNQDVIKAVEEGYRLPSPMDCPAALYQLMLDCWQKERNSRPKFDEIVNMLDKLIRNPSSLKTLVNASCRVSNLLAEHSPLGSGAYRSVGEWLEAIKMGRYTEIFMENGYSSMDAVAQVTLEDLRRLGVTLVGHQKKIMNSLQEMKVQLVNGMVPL
# T5 sequence (Q16659 whole entry): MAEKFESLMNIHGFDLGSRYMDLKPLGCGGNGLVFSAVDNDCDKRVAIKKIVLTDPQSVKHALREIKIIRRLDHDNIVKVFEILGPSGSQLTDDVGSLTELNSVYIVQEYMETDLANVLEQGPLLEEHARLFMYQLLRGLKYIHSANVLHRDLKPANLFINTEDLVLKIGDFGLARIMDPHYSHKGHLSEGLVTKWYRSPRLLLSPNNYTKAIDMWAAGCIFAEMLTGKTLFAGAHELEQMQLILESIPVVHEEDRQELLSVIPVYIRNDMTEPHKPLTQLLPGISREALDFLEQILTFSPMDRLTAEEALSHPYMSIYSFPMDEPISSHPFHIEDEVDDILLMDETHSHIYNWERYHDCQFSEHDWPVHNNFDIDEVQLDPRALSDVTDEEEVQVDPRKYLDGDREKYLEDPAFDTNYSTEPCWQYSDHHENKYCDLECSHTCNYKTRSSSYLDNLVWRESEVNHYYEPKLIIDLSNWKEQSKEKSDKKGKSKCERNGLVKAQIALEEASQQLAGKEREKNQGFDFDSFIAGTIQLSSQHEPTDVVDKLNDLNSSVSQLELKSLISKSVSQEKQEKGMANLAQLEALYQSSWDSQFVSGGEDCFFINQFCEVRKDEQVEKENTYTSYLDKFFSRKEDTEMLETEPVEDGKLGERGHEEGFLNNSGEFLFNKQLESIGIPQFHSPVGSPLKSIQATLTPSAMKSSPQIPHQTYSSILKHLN
# DAPK2, sequence (Q9UIK4 whole entry): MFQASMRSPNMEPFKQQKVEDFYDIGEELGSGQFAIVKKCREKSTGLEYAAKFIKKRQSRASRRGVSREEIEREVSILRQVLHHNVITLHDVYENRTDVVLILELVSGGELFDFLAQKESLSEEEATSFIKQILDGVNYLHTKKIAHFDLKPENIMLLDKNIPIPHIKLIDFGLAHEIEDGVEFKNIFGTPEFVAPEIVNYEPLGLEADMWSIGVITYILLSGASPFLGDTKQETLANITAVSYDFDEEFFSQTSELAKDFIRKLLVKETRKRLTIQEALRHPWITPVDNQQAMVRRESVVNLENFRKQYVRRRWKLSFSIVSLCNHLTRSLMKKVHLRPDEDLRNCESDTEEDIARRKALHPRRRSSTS
smiles,measurement,setting,value
c1ccc2c(c1)Sc1ccccc1N2CCN1CCOCC1 [J54],remaining binding,EGFR(E746-A750del),76%
same,remaining binding,p38-alpha,100%
same,remaining binding,DAPK2,97%
same,remaining binding,ABL2,100%
same,remaining binding,ALK(C1156Y),100%
same,remaining binding,HCK,100%
same,remaining binding,"FLT3(ITD,F691L)",65%
same,remaining binding,BMPR1B,93%
same,remaining binding,GRK2,93%
same,remaining binding,CSF1R-autoinhibited,85%
same,remaining binding,MLK3,100%
same,remaining binding,PFCDPK1(P.falciparum),100%
same,remaining binding,PRKCH,94%
same,remaining binding,[1],85%
same,remaining binding,ERK3,73%
same,remaining binding,EPHA5,100%
same,remaining binding,CAMKK1,100%
same,remaining binding,DRAK1,89%
